Read-outs that look alike come from different tables or passages of the source.
How the values were obtained:
[1] = system: Dunning AT-1 hormone-refractory prostate cancer tumor
Description: (§1) The Dunning prostate cancer cell-line, AT-1, is a completely hormone-refractory tumor. It lacks measurable quantities of receptors for androgens as well as estrogens. As a result, the clinical behavior of this tumor is not influenced by the presence or absence of sex steroids. The doubling time of the tumor is 2.5 days, which makes it one of the most […] of all hormone-refractory Dunning tumors. It has a low (less than 5%) tendency for metastasis. The Dunning tumors are suitable for evaluating immunologic experiments with prostate cancer as they grow in immunocompetent animals.
(§2) Biopsies from excised tumors where investigated microscopically using the TUNEL-technique. Tumor biopsies were investigated with immuno-cytochemistry and antibodies for macrophages and T-lymphocytes.
In the second experiment, rats were treated as in experiment 1, but tumor size was not allowed to exceed 10 mm in diameter. This experiment was made to further evaluate the influence of tumor size on the outcome of treatment.
Animals were divided in four groups:
(§3) Group 4 animals served as tumor-bearing controls.
After animals had been sacrificed, freshly frozen tumor samples were examined for apoptosis using the TUNEL technique.

myeloid cell line = details: in vitro; cited from earlier work
breast cancer cell lines = details: in vitro; cited from earlier work
[2] = system: Dunning AT-1 hormone-refractory prostate cancer tumor; assay: Experiment 1: Dunning AT-1 tumor transplanted subcutaneously in rats, tumors about 17 mm at start of treatment; format: in vivo, Copenhagen-Fisher male rat
Description: as §1, §2
In this experiment Dunning AT-1 tumor was passed through two Copenhagen-Fisher male rats and then transplanted in a single piece, approximately 10 mm^3, which was placed subcutaneously on a third Copenhagen-Fisher male rat's dorsal side. Tumors were allowed to grow to approximately 17 mm in diameter before treatment started. Four groups of six rats each were used.
Freund's complete adjuvant is used to potentiate immune reactivity and to trigger a T-cell response.
Group 3 animals received only complete Freund's adjuvant, 0.1 mL intra-tumorally.
as §3
Tumors were measured by slide caliper at the onset of experiment. This was repeated at the end of experiment when animals were sacrificed, tumors excised, and tumor weight was noted.

[3] = versus control, end of experiment 1

Structure (SMILES) | time for which tumor growth was arrested following treatment ([1]; single injection of 10 mg αAED) | apoptotic effect (myeloid cell line) | apoptotic effect (breast cancer cell lines) | mean tumor weight ([2]; end of experiment 1) [g] | median tumor weight ([2]; end of experiment 1) [g] | Tumor Diameter (mm) ([2]; end of experiment 1 (sacrifice after 3 weeks)) | Decrease in Tumor Size (mm) [2, 3] [mm] | Percent Reduction [2, 3] [%] | mean tumor weight ([1]; single injection of 80 mg βAED, control 5.8 g) [g] | tumor growth observed macroscopically ([1]; single injection, αAED animals sacrificed after 96 hours)
C[C@]12CC[C@H]3[C@@H](CC=C4C[C@@H](O)CC[C@@]43C)[C@@H]1CC[C@H]2O [αAED, Δ5-androstene-3-β, 17α-diol] | at least 96 hours | apoptotic effect | apoptotic effect | – | – | – | – | – | – | –
C[C@]12CC[C@H]3[C@@H](CC=C4C[C@@H](O)CC[C@@]43C)[C@@H]1CC[C@@H]2O [βAED, Δ5-androstene-3-β, 17β-diol] | – | – | – | 11.6 | 10 | 11.6 | 7.6 | 39.58 | 2.9 | clear retardation of tumor growth

From patent US7241753B2, “Method of treatment of prostate cancer” (priority 2000, dated 2007)
